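48-hour exposure; five concentrations; linearly interpolated endpoints. GI50 = concentration required for 50% inhibition of growth. The concentration for full growth arrest is given as TGI.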
How the values were obtained:
Test in all cases: NCI anticancer screen, dose series, 48 h
UACC-257 melanoma = test system: UACC-257 melanoma
SF-268 CNS = test system: SF-268 CNS
K-562 leukemia = test system: K-562 leukemia
NCI-H23 lung = test system: NCI-H23 lung
SK-OV-3 ovarian = test system: SK-OV-3 ovarian
SNB-75 CNS = test system: SNB-75 CNS
HCC-2998 colon = test system: HCC-2998 colon
COLO 205 colon = test system: COLO 205 colon
OVCAR-8 ovarian = test system: OVCAR-8 ovarian
RPMI-8226 leukemia = test system: RPMI-8226 leukemia

Row | SMILES | TGI (UACC-257 melanoma) | TGI (SF-268 CNS) | TGI (K-562 leukemia) | TGI (NCI-H23 lung) | TGI (SK-OV-3 ovarian) | TGI (SNB-75 CNS) | TGI (HCC-2998 colon) | GI50 (COLO 205 colon) | TGI (COLO 205 colon) | GI50 (UACC-257 melanoma) | GI50 (SF-268 CNS) | GI50 (OVCAR-8 ovarian) | TGI (OVCAR-8 ovarian) | GI50 (NCI-H23 lung) | GI50 (SK-OV-3 ovarian) | GI50 (RPMI-8226 leukemia) | TGI (RPMI-8226 leukemia) | GI50 (HCC-2998 colon) | GI50 (K-562 leukemia) | GI50 (SNB-75 CNS)
1 | Cc1cccc(NC(N)=S)c1 | > 100 µM | > 100 µM | > 100 µM | > 100 µM | > 100 µM | > 100 µM | > 100 µM |  |  |  |  |  |  |  |  |  |  |  |  | 
2 | COc1ccc2c(c1)C(=O)c1c-2n(CCCCl)c(=O)c2cc([N+](=O)[O-])ccc12 | 98.5 µM |  | > 100 µM |  | > 100 µM | > 100 µM | > 28.6 µM | 0.902 µM | > 100 µM | 1.59 µM | < 0.0262 µM | 0.289 µM | > 100 µM | 0.107 µM | 0.569 µM | 0.075 µM | 1.6 µM | 0.996 µM |  | 
3 | CN(C)C=O.CN(C)C=O.CN1C(C(=O)Nc2ccccn2)=C([O-])c2ccccc2S1(=O)=O.CN1C(C(=O)Nc2ccccn2)=C([O-])c2ccccc2S1(=O)=O.[Cu+2] | > 100 µM | > 100 µM | > 100 µM | 57 µM | 45.8 µM | 49.5 µM | > 100 µM |  | > 100 µM |  |  |  | > 100 µM |  |  |  | > 100 µM | > 100 µM | > 100 µM | 
4 | N=C(N)SC(c1ccccc1)c1ccccc1 | 28.4 µM | 78.5 µM | 85.3 µM | 28.3 µM | > 100 µM |  | 20.1 µM |  | 47.1 µM |  |  |  | 36.4 µM |  |  |  | 31.7 µM |  |  | 
5 | Nc1ccc([As](=O)(O)O)cc1 | > 100 µM | > 100 µM | > 100 µM | > 100 µM | > 100 µM | > 100 µM | > 100 µM |  | > 100 µM |  |  |  | > 100 µM |  |  |  |  |  |  | 
6 | Cn1ncc2c(=O)[nH]c(-c3ccccc3)nc21 | > 100 µM | > 100 µM | > 100 µM | > 100 µM | > 100 µM | > 100 µM | > 100 µM |  | > 100 µM |  |  |  | > 100 µM |  |  |  | > 100 µM |  |  | 
7 | CC(C)(c1ccccc1)c1ccc(Oc2ccc3c(c2)-c2nc-3nc3[nH]c(nc4nc(nc5[nH]c(n2)c2ccc(Oc6ccc(C(C)(C)c7ccccc7)cc6)cc52)-c2cc(Oc5ccc(C(C)(C)c6ccccc6)cc5)ccc2-4)c2ccc(Oc4ccc(C(C)(C)c5ccccc5)cc4)cc32)cc1 | > 100 µM |  | > 100 µM | > 100 µM | > 100 µM | 67.8 µM | > 100 µM |  | > 100 µM |  |  |  | > 100 µM |  |  |  | > 100 µM |  |  | 
8 | O=C(Nc1ccc(-n2ccc3c(NC(=O)c4ccccc4)ncnc32)cc1)Nc1ccc(Cl)c(C(F)(F)F)c1 | 6.39 µM | 4.99 µM | 5.04 µM | 5.28 µM |  | 8.08 µM | 6.54 µM | 2.63 µM | 5.86 µM | 2.76 µM | 2.02 µM |  |  | 2.19 µM |  | 1.03 µM | 2.84 µM | 2.47 µM | 1.45 µM | 1.67 µM
9 | O=C(O)\C=C/C=C/C=C/C=C/C(=O)O | > 100 µM | > 100 µM | > 100 µM | > 100 µM | > 100 µM | > 100 µM | > 100 µM |  | > 100 µM |  |  |  | > 100 µM |  |  |  | > 100 µM |  |  | 
10 | CCCCCCCCCCCCCCC(C(=O)[O-])[n+]1ccccc1 (stereo unspecified) | > 100 µM | > 100 µM | > 100 µM | > 100 µM | > 100 µM | > 100 µM | > 100 µM |  | > 100 µM |  |  |  | > 100 µM |  |  |  | > 100 µM |  |  | 
11 | Cc1cc(N2CCCCC2)nc(NCc2cc(Nc3ccnc4cc(Cl)ccc34)ccc2F)n1 | 2.85 µM | 3.11 µM | 5.17 µM | 4.92 µM | 3.48 µM | 2.83 µM |  | 0.329 µM | 1.4 µM | 1.32 µM | 1.35 µM | 2.05 µM | 4.68 µM | 1.83 µM | 1.93 µM | 1.88 µM | 4.55 µM |  | 2.07 µM | 1.39 µM
12 | CC(C)C(C)C(O)C(O)C(C)C1CCC2C3COC(=O)C4CC(O)C(O)CC4(C)C3CCC12C (stereo unspecified) | > 100 µM | > 100 µM | > 100 µM | > 100 µM | > 100 µM |  | > 100 µM |  | > 100 µM |  |  |  | > 100 µM |  |  |  |  |  |  | 
13 | NS(=O)(=O)c1ccc(C(=O)O)cc1 |  | > 100 µM | > 100 µM | > 100 µM | > 100 µM |  |  |  | > 100 µM |  |  |  | > 100 µM |  |  |  | > 100 µM |  |  | 
14 | COc1ccc(C(=O)NNC(=O)c2nsc3ccccc23)cc1 | > 100 µM | > 100 µM | > 100 µM | > 100 µM |  |  | > 100 µM |  | > 100 µM |  |  |  | > 100 µM |  |  |  | > 100 µM |  |  | 
15 | NC(CCCNc1ccc(O)cc1)C(=O)O (stereo unspecified) | > 70.5 µM | > 62.6 µM | > 72.1 µM | > 100 µM | > 100 µM | > 100 µM | > 100 µM |  | > 90.3 µM |  |  |  | > 62.2 µM |  |  |  | 54.8 µM |  |  | 
16 | CC1(C)CCCC2(C)C3=C(CCC12)C(=O)OC3 (stereo unspecified) | > 100 µM | > 100 µM |  | > 100 µM | > 100 µM | > 100 µM | > 100 µM |  | > 100 µM |  |  |  | > 100 µM |  |  |  | 68.5 µM |  |  | 
17 | COC(=O)C12OCC34C(CC5C(C)C6=CC(=O)OC6=CC5(C)C3C(O)C1O)OC(=O)C(OC(C)=O)C24 (stereo unspecified) | 30 µM | 40.1 µM | 54.3 µM | 32.5 µM | 79.4 µM | 42.1 µM | 30 µM |  | 22.6 µM |  |  |  | 34.1 µM |  |  |  | 40.5 µM |  |  | 14.7 µM
18 | Cn1c(=O)c2c(nc(N3CCOCC3)n2CCCNCC(O)c2ccc(O)c(O)c2)n(C)c1=O (stereo unspecified) | > 100 µM | > 100 µM | > 100 µM | > 100 µM | > 100 µM | > 100 µM |  |  | > 100 µM |  |  |  | > 100 µM |  |  |  | > 100 µM |  |  | 
19 | O=C1CC(c2ccccc2)NCCCCN2CC(CN1)C(C(O)c1ccccc1)C2=O (stereo unspecified) | > 100 µM | > 100 µM |  | > 100 µM | > 100 µM | > 100 µM | > 100 µM |  | > 100 µM |  |  |  | > 100 µM |  |  |  |  |  |  | 
20 | CC1(C)CCc2cc3c(cc2O1)OC(C)(C)CC3=O |  | > 100 µM | > 100 µM | > 100 µM | > 100 µM | > 100 µM |  |  | > 100 µM |  |  |  | > 100 µM |  |  |  | > 100 µM |  |  | 
21 | CCc1cc(C)cc2[n+]1CC=C2C | > 100 µM | > 100 µM |  | > 100 µM |  | > 100 µM | > 100 µM |  | > 100 µM |  |  |  | > 100 µM |  |  |  |  |  |  | 

From PubChem BioAssay (NCI)
